This experiment deals with D2 receptor. The experiment can be described thus: Binding to cloned D2 receptors ([125I]-iodosulpride displacement). As to conditions: reference aminotetralines. The procedure:
Pharmacological study STUDIES OF THE BINDING OF THE COMPOUNDS OF THE INVENTION TO D2 AND D3 RECEPTORS
The results are expressed in the form of pKi (pKi =-logKi).
The Ki value is derived from the formula Ki =IC50 /(1+L/KD), where L is the concentration of [^125 I]-iodosulpride used in the experiment and Kd its dissociation constant.
The IC50, which represents the concentration that gives a 50% inhibition of the binding of the radioligand, is calculated by non-linear regression (Simplex method).

In the case of `CCCN[C@@H]1CCc2c(OC)cccc2[C@@H]1C` [(+) AJ 76], the “selectivity (D3 versus D2)” value is 2.
Turning to `CCCN(CCC)[C@@H]1CCc2c(OC)cccc2[C@@H]1C` [(+) UH 232], the “selectivity (D3 versus D2)” value worked out at 5.

The values are drawn from patent publication US5726208A, “Heterocyclic tertiary amines” (Adir et Compagnie, priority 1995, dated 1998).
